The results in this text go back to ChEMBL document CHEMBL4002607, “Sulfamic and succinic acid derivatives of 25-OH-PPD and their activities to MCF-7, A-549, HCT-116, and BGC-823 cell lines” (Bioorg Med Chem Lett, 2017).

Test [1] has as its system HCT-116. The test can be described thus: Antiproliferative activity against human HCT116 cells after 48 hrs by MTT assay. In kind it is functional, cell-based. A general note: Tetrazolium dyes change colour on reduction, which living cells bring about.
Test [2] concerns A549. The experiment in a line: Antiproliferative activity against human A549 cells after 48 hrs by MTT assay. It is filed as functional, cell-based.
Test [3] relates to MCF7. The test can be described thus: Antiproliferative activity against human MCF7 cells after 48 hrs by MTT assay. It is filed as functional, cell-based. The conditions noted are these: MCF7, 48 h.
Test [4] in a line: Antiproliferative activity against human IOSE-144 cells after 48 hrs by MTT assay. It is filed as cell-based. The conditions noted are these: IOSE-144, 48 h.
Test [5] has as its system A549. The test can be described thus: Antiproliferative activity against human A549 cells assessed as cell viability at 20 uM after 48 hrs by MTT assay relative to control. As to conditions: A549, 48 h, read-out: Activity; call rule not given here. It is filed as functional.
For test [6], the system named is BGC-823. The experiment in a line: Antiproliferative activity against human BGC823 cells assessed as cell viability at 40 uM after 48 hrs by MTT assay relative to control. The conditions noted are these: BGC-823, 48 h, read-out: Activity. It is filed as functional.
Test [7] has as its system BGC-823. The experiment in a line: Antiproliferative activity against human BGC823 cells after 48 hrs by MTT assay. It is filed as functional, cell-based. The conditions noted are these: BGC-823, 48 h.
The mark [8] stands for this setting: Homo sapiens, HCT-116, 48 h, read-out: IC50.
Setting [9] is: Homo sapiens, A549, 48 h, read-out: IC50.

`CC(C)(O)CCC[C@@](C)(O)[C@H]1CC[C@]2(C)[C@@H]1[C@H](O)C[C@@H]1[C@@]3(C)CC[C@H](O)C(C)(C)[C@@H]3CC[C@]12C`: the IC50 in test [1] (setting [8]) was 21.5 µM; in test [2] (setting [9]), 5.9 µM; in test [3], 7.5 µM; in test [4], greater than 100 µM; in test [7], 33.2 µM. The viability at 20 µM in test [5] worked out at 36.5%. In addition, the viability at 40 µM in test [6] amounted to 40.1%.
With `C=C(CCCC(C)(C)O)[C@H]1CC[C@]2(C)[C@@H]1[C@H](O)C[C@@H]1[C@@]3(C)CC[C@H](OS(N)(=O)=O)C(C)(C)[C@@H]3CC[C@]12C`, the IC50 was 42.4 µM in test [1] (setting [8]); 0.8 µM in test [2] (setting [9]); 11.9 µM in test [3]; greater than 100 µM in test [4]; 21.6 µM in test [7]. In test [5], the viability at 20 µM is 9%. Besides, in test [6], the viability at 40 µM was found to be 24.7%.
Take `C=C(CCCC(C)(C)OS(N)(=O)=O)[C@H]1CC[C@]2(C)[C@@H]1[C@H](O)C[C@@H]1[C@@]3(C)CC[C@H](O)C(C)(C)[C@@H]3CC[C@]12C`: the IC50 result in test [1] (hct-116) was “Not Active”; in test [2] (setting [9]), 13.7 µM; in test [3], 20.8 µM; in test [4], greater than 100 µM; in test [7], 32 µM. For the same molecule, the viability at 40 µM in test [6] is 39.9%.
On to `CC(C)=CCC[C@@](C)(O)[C@H]1CC[C@]2(C)[C@@H]1[C@H](O)C[C@@H]1[C@@]3(C)CC[C@H](OS(N)(=O)=O)C(C)(C)[C@@H]3CC[C@]12C`, for which the IC50 was 26.8 µM in test [1] (setting [8]); 9.9 µM in test [2] (setting [9]); 14.5 µM in test [3]; greater than 100 µM in test [4]; 22.1 µM in test [7]. Further, the viability at 40 µM in test [6] is 17.1%.
As for `C=C(CCCC(C)(C)O)[C@H]1CC[C@]2(C)[C@@H]1[C@H](OS(N)(=O)=O)C[C@@H]1[C@@]3(C)CC[C@H](OS(N)(=O)=O)C(C)(C)[C@@H]3CC[C@]12C`, the IC50 in test [1] (setting [8]) was greater than 100 µM; in test [2] (setting [9]) it was 24.1 µM; in test [3], 30.3 µM; in test [4], greater than 100 µM; in test [7], 37.7 µM.
Take `CC(C)(O)CCC[C@@](C)(O)[C@H]1CC[C@]2(C)[C@@H]1[C@H](OC(=O)CCC(=O)O)C[C@@H]1[C@@]3(C)CC[C@H](O)C(C)(C)[C@@H]3CC[C@]12C`: the IC50 is 75.3 µM in test [1] (setting [8]); greater than 100 µM in test [2] (setting [9]); 77.1 µM in test [3]; greater than 100 µM in test [4]; greater than 100 µM in test [7].
Consider `C=C(CCCC(C)(C)O)[C@H]1CC[C@]2(C)[C@@H]1[C@H](OS(N)(=O)=O)C[C@@H]1[C@@]3(C)CC[C@H](O)C(C)(C)[C@@H]3CC[C@]12C`, for which the IC50 was greater than 100 µM in test [1] (setting [8]); 20.9 µM in test [2] (setting [9]); 33.8 µM in test [3]; greater than 100 µM in test [4]; greater than 100 µM in test [7].
For the molecule `CC(C)(O)CCC[C@@](C)(O)[C@H]1CC[C@]2(C)[C@@H]1[C@H](O)C[C@@H]1[C@@]3(C)CC[C@H](OS(N)(=O)=O)C(C)(C)[C@@H]3CC[C@]12C`, the IC50 entry was “Not Active” in test [1] (hct-116); 0.2 µM in test [2] (setting [9]); 14.6 µM in test [3]; greater than 100 µM in test [4]; 14 µM in test [7]. The viability at 20 µM in test [5] stood at 6%. The viability at 40 µM in test [6] amounted to 40%.
Consider `CC(C)=CCC[C@@](C)(O)[C@H]1CC[C@]2(C)[C@@H]1[C@H](OS(N)(=O)=O)C[C@@H]1[C@@]3(C)CC[C@H](O)C(C)(C)[C@@H]3CC[C@]12C`, for which the IC50 was 57.9 µM in test [1] (setting [8]); 23.8 µM in test [2] (setting [9]); 18.2 µM in test [3]; greater than 100 µM in test [4]; 25.5 µM in test [7]. The viability at 40 µM in test [6] came out at 19.9%.
For `C=C(CCC=C(C)C)[C@H]1CC[C@]2(C)[C@@H]1[C@H](OS(N)(=O)=O)C[C@@H]1[C@@]3(C)CC[C@H](O)C(C)(C)[C@@H]3CC[C@]12C`, the IC50 entry in test [1] (hct-116) was “Not Active”; in test [2] (a549), “Not Active”; in test [3], 13.5 µM; in test [4], greater than 100 µM; in test [7], 25.9 µM. Besides, the viability at 40 µM in test [6] came out at 21.2%.
Take `C=C(CCCC(C)(C)O)[C@H]1CC[C@]2(C)[C@@H]1[C@H](O)C[C@@H]1[C@@]3(C)CC[C@H](O)C(C)(C)[C@@H]3CC[C@]12C`: the IC50 is greater than 100 µM in test [1] (setting [8]); 29.2 µM in test [2] (setting [9]); 32.9 µM in test [3]; greater than 100 µM in test [4]; 34.6 µM in test [7].
For the molecule `CC(C)(O)CCC[C@@](C)(O)[C@H]1CC[C@]2(C)[C@@H]1[C@H](OC(=O)CCC(=O)O)C[C@@H]1[C@@]3(C)CC[C@H](OC(=O)CCC(=O)O)C(C)(C)[C@@H]3CC[C@]12C`, the IC50 in test [1] (setting [8]) is greater than 100 µM; in test [2] (setting [9]), greater than 100 µM; in test [3], 40.3 µM; in test [4], greater than 100 µM; in test [7] it was greater than 100 µM.
On to `CC(C)(O)CCC[C@@](C)(OS(N)(=O)=O)[C@H]1CC[C@]2(C)[C@@H]1[C@H](O)C[C@@H]1[C@@]3(C)CC[C@H](OS(N)(=O)=O)C(C)(C)[C@@H]3CC[C@]12C`, for which the IC50 was 41.5 µM in test [1] (setting [8]); 8.8 µM in test [2] (setting [9]); 12.4 µM in test [3]; greater than 100 µM in test [4]; 14.9 µM in test [7]. Besides, the viability at 40 µM in test [6] worked out at 14.5%.
Turning to `O=c1[nH]cc(F)c(=O)[nH]1` [FLUOROURACIL], the IC50 was 29.2 µM in test [1] (setting [8]), 10.5 µM in test [2] (setting [9]), 19.2 µM in test [3] and 34.8 µM in test [7].

Broadly, the IC50 is the point on the concentration scale where inhibition reaches its midpoint.
